Experimental findings from ChEMBL document CHEMBL1154267, “Imidazo[1,5-a][1,2,4]-triazolo[1,5-d][1,4]benzodiazepines as potent and highly selective GABAA alpha5 inverse agonists with potential for the treatment of cognitive dysfunction” (Bioorg Med Chem Lett, 2009) are described below.

Series [1] has as its target T1, GABA-A receptor; alpha-5/beta-3/gamma-2 (Homo sapiens, UniProt P18507+P28472+P31644).
T1 sequence (P18507 whole entry): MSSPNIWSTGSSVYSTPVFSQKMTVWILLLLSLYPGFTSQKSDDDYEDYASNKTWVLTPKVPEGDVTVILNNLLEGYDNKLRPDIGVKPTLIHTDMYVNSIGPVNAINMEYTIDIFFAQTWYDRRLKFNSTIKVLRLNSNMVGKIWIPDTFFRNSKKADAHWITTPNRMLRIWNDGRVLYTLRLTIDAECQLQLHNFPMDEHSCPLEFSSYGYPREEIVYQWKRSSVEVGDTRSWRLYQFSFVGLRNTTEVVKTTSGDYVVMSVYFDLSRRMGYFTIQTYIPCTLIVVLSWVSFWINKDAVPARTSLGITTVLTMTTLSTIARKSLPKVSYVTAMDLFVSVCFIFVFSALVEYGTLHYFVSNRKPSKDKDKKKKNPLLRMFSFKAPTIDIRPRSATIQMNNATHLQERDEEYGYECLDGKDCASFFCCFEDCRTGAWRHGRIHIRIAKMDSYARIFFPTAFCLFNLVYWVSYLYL
T1 sequence (P28472 whole entry): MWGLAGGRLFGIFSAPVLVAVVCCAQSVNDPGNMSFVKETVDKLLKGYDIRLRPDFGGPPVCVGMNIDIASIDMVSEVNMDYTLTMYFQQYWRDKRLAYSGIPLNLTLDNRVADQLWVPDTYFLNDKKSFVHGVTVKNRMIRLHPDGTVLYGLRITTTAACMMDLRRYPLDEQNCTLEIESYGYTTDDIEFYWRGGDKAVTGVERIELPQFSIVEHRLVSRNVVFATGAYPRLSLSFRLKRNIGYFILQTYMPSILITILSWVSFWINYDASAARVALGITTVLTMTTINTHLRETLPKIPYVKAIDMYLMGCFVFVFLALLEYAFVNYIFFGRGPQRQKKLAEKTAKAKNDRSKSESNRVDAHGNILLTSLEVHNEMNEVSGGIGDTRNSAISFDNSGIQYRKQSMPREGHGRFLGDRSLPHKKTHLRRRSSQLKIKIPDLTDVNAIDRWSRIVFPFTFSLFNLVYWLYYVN
T1 sequence (P31644 whole entry): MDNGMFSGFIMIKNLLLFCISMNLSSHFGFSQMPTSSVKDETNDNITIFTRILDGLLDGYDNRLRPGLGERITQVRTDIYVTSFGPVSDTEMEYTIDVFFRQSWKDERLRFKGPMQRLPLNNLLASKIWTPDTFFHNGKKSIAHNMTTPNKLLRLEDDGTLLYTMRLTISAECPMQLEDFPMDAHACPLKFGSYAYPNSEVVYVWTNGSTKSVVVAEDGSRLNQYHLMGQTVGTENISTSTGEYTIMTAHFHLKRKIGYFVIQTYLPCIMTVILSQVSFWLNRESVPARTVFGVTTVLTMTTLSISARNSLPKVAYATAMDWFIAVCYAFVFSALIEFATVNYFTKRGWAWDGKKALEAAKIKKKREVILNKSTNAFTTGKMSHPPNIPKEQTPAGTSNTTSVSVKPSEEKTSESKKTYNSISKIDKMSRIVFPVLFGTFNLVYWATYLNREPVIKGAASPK
Kind of series: Displacement of [3H]flumazenil from GABAA alpha-5-beta-3-gamma-2 receptor. The format is protein-complex assay.

The target in series [2] is T2, GABA-A receptor; alpha-1/beta-3/gamma-2 (Homo sapiens, UniProt P14867+P18507+P28472).
T2 sequence (P14867 whole entry): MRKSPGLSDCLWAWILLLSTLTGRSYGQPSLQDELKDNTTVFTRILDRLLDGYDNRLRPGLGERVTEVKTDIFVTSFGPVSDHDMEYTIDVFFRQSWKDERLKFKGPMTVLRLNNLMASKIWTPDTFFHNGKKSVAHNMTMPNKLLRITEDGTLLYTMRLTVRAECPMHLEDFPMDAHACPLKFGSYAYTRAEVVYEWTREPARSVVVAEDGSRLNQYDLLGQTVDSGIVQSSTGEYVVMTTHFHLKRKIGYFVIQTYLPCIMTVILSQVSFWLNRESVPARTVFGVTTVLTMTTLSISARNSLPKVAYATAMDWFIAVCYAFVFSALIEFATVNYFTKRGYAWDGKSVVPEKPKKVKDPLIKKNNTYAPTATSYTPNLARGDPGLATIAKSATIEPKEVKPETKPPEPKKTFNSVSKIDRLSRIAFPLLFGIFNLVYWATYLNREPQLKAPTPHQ
T2 sequence (P18507 whole entry): T1 sequence (P18507 whole entry)
T2 sequence (P28472 whole entry): T1 sequence (P28472 whole entry)
Description: Displacement of [3H]flumazenil from GABAA alpha-1-beta-3-gamma-2 receptor. The format is protein-complex assay. (In general: In a radioligand displacement assay an active substance lowers the binding of a labelled ligand.)

Series [3] deals with T3, GABA-A receptor; alpha-2/beta-3/gamma-2 (Homo sapiens, UniProt P18507+P28472+P47869).
T3 sequence (P18507 whole entry): T1 sequence (P18507 whole entry)
T3 sequence (P28472 whole entry): T1 sequence (P28472 whole entry)
T3 sequence (P47869 whole entry): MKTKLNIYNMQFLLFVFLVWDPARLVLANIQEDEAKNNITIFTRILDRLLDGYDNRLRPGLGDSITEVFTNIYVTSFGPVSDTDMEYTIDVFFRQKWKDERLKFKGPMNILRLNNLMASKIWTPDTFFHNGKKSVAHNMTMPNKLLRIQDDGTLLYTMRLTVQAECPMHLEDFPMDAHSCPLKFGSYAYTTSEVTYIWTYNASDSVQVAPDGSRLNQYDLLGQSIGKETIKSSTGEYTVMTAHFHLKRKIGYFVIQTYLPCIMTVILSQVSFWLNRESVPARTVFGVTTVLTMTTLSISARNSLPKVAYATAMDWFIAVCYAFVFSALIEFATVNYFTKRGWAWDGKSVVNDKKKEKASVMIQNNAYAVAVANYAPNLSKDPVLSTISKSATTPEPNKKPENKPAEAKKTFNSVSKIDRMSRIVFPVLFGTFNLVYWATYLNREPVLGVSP
Description: Displacement of [3H]flumazenil from GABAA alpha-2-beta-3-gamma-2 receptor. The format is protein-complex assay.

The target of series [4] is T4, GABA-A receptor; alpha-3/beta-3/gamma-2 (Homo sapiens, UniProt P18507+P28472+P34903).
T4 sequence (P18507 whole entry): T1 sequence (P18507 whole entry)
T4 sequence (P28472 whole entry): T1 sequence (P28472 whole entry)
T4 sequence (P34903 whole entry): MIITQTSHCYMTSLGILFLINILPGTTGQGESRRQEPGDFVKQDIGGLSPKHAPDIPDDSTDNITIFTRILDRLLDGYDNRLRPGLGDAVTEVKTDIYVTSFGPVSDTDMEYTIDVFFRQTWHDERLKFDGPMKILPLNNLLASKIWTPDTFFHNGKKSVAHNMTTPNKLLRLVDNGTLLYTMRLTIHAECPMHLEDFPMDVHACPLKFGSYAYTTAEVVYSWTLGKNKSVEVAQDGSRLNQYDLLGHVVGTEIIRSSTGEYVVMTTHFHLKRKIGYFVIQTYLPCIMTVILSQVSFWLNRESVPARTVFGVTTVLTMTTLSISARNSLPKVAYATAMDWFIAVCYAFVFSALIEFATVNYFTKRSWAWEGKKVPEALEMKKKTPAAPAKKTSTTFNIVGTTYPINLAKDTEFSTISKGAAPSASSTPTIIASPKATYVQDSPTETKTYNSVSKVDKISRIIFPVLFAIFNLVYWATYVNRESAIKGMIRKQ
Description: Displacement of [3H]flumazenil from GABAA alpha-3-beta-3-gamma-2 receptor. The format is protein-complex assay.

Series [5] concerns the target GABA-A receptor; alpha-5/beta-3/gamma-2 (Homo sapiens) (UniProt P18507+P28472+P31644). Kind of series: Inverse agonist activity at GABAA alpha-5-beta-3-gamma-2 receptor assessed as modulation of GABA-induced chloride ion flux by electrophysiology assay relative to GABA. It counts as functional.
Series [6] can be described thus: Solubility of the compound. It counts as physicochemical.
A short description of series [7]: Lipophilicity, log D at pH 7.4. Particulars: buffer. The format is physicochemical.
Series [8] can be described thus: Permeability by PAMPA. It counts as ADME. Particulars: read-out: permeability.
Series [9] has as its system Liver microsomes. Description: Clearance in human liver microsomes. The format is ADME, Microsome. Background: Microsomes from liver hold many membrane-bound enzymes, among them those of drug oxidation.
The nature of series [10]: Half life in rat. It counts as ADME, organism-based. The settings on record: in vivo.
Series [11] in a line: Clearance in rat. The format is ADME, organism-based. The settings on record: in vivo.
Series [12] in a line: Volume of distribution at steady state in rat. The format is ADME, organism-based. Particulars: in vivo, read-out: Vdss.
Series [13] in a line: Oral bioavailability in rat. It counts as ADME, organism-based. The settings on record: in vivo.
Series [14] is described as follows: Ratio of drug level in brain to plasma in rat. It counts as ADME, organism-based. The settings on record: brain and plasma.
The subject of series [15] is Rattus norvegicus. Description: Behavioral effect in Lister hooded rat assessed as reversal of Scopolamine-induced impairment of working memory at 1 to 3 mg/kg, ip administered 30 mins before Scopolamine challenge by delayed match to position test. It counts as functional, organism-based.
In series [16] the test system is Rattus norvegicus. Description: Behavioral effect in Lister hooded rat assessed as inhibition of scopolamine-induced impairment of working memory at 1 to 3 mg/kg, po after 30 mins by delayed match to position test. The format is functional, organism-based.
The nature of series [17]: Selectivity ratio of Ki for GABAA alpha-1-beta-3-gamma-2 receptor to Ki for GABAA alpha-5-beta-3-gamma-2 receptor.
Series [18] can be described thus: Selectivity ratio of Ki for GABAA alpha-2-beta-3-gamma-2 receptor to Ki for GABAA alpha-5-beta-3-gamma-2 receptor.
Series [19] is described as follows: Selectivity ratio of Ki for GABAA alpha-3-beta-3-gamma-2 receptor to Ki for GABAA alpha-5-beta-3-gamma-2 receptor.
Series [20] relates to Liver microsomes. Description: Clearance in rat liver microsomes. It counts as ADME, Microsome.
Series [21] deals with Rattus norvegicus. Description: Behavioral effect in Lister hooded rat assessed as reversal of Scopolamine-induced impairment of working memory at 1 mg/kg, po administered 30 mins before Scopolamine challenge by delayed match to position test. The format is functional, organism-based. Details: dose 1 mg/kg.
The species entered for series [22] is Rattus norvegicus. Description: Toxicity in Lister hooded rat assessed as behavioral impairment. It counts as organism-based. The settings on record: in vivo.

The structures appear in SMILES notation. Values after ≈ are worked out from the molar mass of the structure shown. Active and inactive are the calls of the source. No cut-off for these calls is given here.

As a reminder, the Ki is a dissociation constant, usually derived from enzyme kinetics or from competition with a known ligand. A lower Ki goes with tighter binding. The term solubility denotes how much of the substance goes into solution per volume. The low end stands for little dissolved substance, the high end for much dissolved substance. As usually defined, the logD is lipophilicity at a set pH, counting ionised and neutral species. The half-life is the time in which the quantity being followed falls by half. As a reminder, the clearance is the rate of elimination divided by the concentration. Low readings indicate inefficient removal, high ones efficient removal. As a reminder, the bioavailability is the share of a dose that reaches the circulation, judged against a reference dose that is usually intravenous. The Kp is tissue or fluid exposure divided by exposure in the circulation. Take `Cc1ncn2c1Cn1nc(CN3CCCC3=O)nc1-c1cc(Br)ccc1-2`: the Ki in series [1] is 7 nM; in series [2], 624 nM; in [3], 669 nM; in series [4], 515 nM. The Efficacy in [5] was -34%. The solubility in [6] is 550 µg/mL (≈ 1330 µM). This molecule registered a logD in series [7] of 1.5. Besides, in series [8], the Papp amounted to 1.5 ×10⁻⁶ cm/s. In addition, the CL in series [9] was found to be 3000 µL/min/mg. Besides, the half-life in [10] was 0.8 h. This molecule also registered a clearance in series [11] of 30 mL/min/kg. For the same molecule, in series [12], the Vd was found to be 1.3 L/kg. This molecule displayed a bioavailability in [13] of 32%. For the same molecule, the Kp in series [14] stood at 0.09. Further, the Activity entry in series [15] is “Dose-dependent effect”. Further, the outcome in [16] was inactive.
Take `Cc1cc(Cc2nc3n(n2)Cc2c(C)ncn2-c2ccc(Cl)cc2-3)on1`: the Ki in series [1] worked out at 0.6 nM. Moreover, in series [5], the Efficacy is -18%. Further, the Ratio Ki amounted to 466 in series [17], 251 in [18] and 223 in series [19]. The same molecule registered a solubility in series [6] of 14 µg/mL (≈ 38.2 µM). Also, the logD in series [7] came out at 2.3. In addition, in series [8], the Papp was 3.1 ×10⁻⁶ cm/s. Also, in [20], the CL turned out to be 6000 µL/min/mg. The half-life in [10] was 1.4 h. In addition, the clearance in series [11] worked out at 9.5 mL/min/kg. For the same molecule, in [12], the Vd was determined as 1.8 L/kg. The same molecule registered a bioavailability in series [13] of 44%. Besides, in series [14], the Kp came to 1. For the same molecule, the outcome in [21] was Active. Further, the Activity result in series [22] is “Non-toxic”.
